ChEMBL document CHEMBL3576789, “Origins of the Quinolone Class of Antibacterials: An Expanded "Discovery Story"” (2015)
Converted amounts (≈) assume the structure as drawn.

Assays:
Proteus mirabilis = experiment: Antimicrobial activity against Proteus mirabilis GN2425; format: functional
Staphylococcus aureus [1] = experiment: Antimicrobial activity against Staphylococcus aureus 209P; format: functional
Proteus vulgaris = experiment: Antimicrobial activity against Proteus vulgaris HX19; format: functional
Pseudomonas aeruginosa [2] = experiment: Antimicrobial activity against Pseudomonas aeruginosa 104; format: functional
Klebsiella pneumoniae [3] = experiment: Antimicrobial activity against Klebsiella pneumoniae PCI602; format: functional
Salmonella typhi = experiment: Antimicrobial activity against Salmonella typhi T58; format: functional, Salmonella enterica subsp. enterica serovar Typhi; conditions: Salmonella enterica
Escherichia coli [4] = experiment: Antimicrobial activity against Escherichia coli NIHJ JC2; format: functional
Pseudomonas aeruginosa [5] = experiment: Antimicrobial activity against Pseudomonas aeruginosa TU408; format: functional
Klebsiella pneumoniae [6] = experiment: Antimicrobial activity against Klebsiella pneumoniae 602; format: functional
Staphylococcus aureus [7] = experiment: Antimicrobial activity against Staphylococcus aureus 209p JC1; format: functional
Escherichia coli [8] = experiment: Antimicrobial activity against Escherichia coli NIHJ; format: functional

Compound	MIC (Proteus mirabilis) [µg/mL]	MIC (Staphylococcus aureus [1]) [µg/mL]	MIC (Proteus vulgaris) [µg/mL]	MIC (Pseudomonas aeruginosa [2]) [µg/mL]	MIC (Klebsiella pneumoniae [3]) [µg/mL]	MIC (Salmonella typhi) [µg/mL]	MIC (Escherichia coli [4]) [µg/mL]	MIC (Pseudomonas aeruginosa [5]) [µg/mL]	MIC (Klebsiella pneumoniae [6]) [µg/mL]	MIC (Staphylococcus aureus [7]) [µg/mL]	MIC (Escherichia coli [8]) [µg/mL]
CCn1cc(C(=O)O)c(=O)c2ccc(C)cc21	12.5 (≈ 54.1 µM)	200 (≈ 865 µM)	12.5 (≈ 54.1 µM)	> 200	6.25 (≈ 27 µM)	12.5 (≈ 54.1 µM)	6.25 (≈ 27 µM)	> 50	25 (≈ 108 µM)	> 50	6.25 (≈ 27 µM)
CCn1cc(C(=O)O)c(=O)c2ccc(Cl)cc21	12.5 (≈ 49.7 µM)	50 (≈ 199 µM)	25 (≈ 99.3 µM)	200 (≈ 795 µM)	–	–	–	–	25 (≈ 99.3 µM)	–	25 (≈ 99.3 µM)
CCn1cc(C(=O)O)c(=O)c2ccc(C)nc21 [NALIDIXIC ACID]	12.5 (≈ 53.8 µM)	100 (≈ 431 µM)	1.56 (≈ 6.72 µM)	200 (≈ 861 µM)	6.25 (≈ 26.9 µM)	6.25 (≈ 26.9 µM)	6.25 (≈ 26.9 µM)	> 50	6.25 (≈ 26.9 µM)	> 50	3.13 (≈ 13.5 µM)
